Results as given in ChEMBL document CHEMBL1139959, “Optimization of triaryl bis-sulfones as cannabinoid-2 receptor ligands” (Bioorg Med Chem Lett, 2007).

Experiments:
[1] = molecular target: Cannabinoid receptor 2 (Homo sapiens) (UniProt P34972); assay: Binding affinity to CB2 receptor
Homo sapiens = species on record: Homo sapiens; assay: Selectivity for CB1 receptor over CB2 receptor
in vivo = settings: rat, plasma, po, 10 mg/kg
Description: AUC in rat at 10 mg/kg, po after 6 hrs

Sequence of Cannabinoid receptor 2 (Homo sapiens) (P34972 whole entry, looked up): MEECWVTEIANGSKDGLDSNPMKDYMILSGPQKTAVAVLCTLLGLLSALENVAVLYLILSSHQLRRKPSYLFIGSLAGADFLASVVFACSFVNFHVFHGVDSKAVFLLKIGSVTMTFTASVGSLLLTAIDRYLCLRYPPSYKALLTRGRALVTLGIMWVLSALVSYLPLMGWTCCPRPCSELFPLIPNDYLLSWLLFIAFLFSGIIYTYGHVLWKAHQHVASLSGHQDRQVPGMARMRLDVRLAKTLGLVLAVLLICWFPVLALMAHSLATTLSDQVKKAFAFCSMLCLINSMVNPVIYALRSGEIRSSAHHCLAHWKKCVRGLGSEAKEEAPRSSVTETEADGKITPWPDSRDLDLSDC

C[C@H](NS(=O)(=O)C(F)(F)F)c1ccc(S(=O)(=O)c2ccc(Cl)cc2S(=O)(=O)c2c(F)cccc2F)cc1
Ki [1]: 0.0058 µM
Ratio Ki (Homo sapiens): 642

C[C@H](NCCC(F)(F)F)c1ccc(S(=O)(=O)c2ccc(Cl)cc2S(=O)(=O)c2ccccc2F)cc1
Ratio Ki (Homo sapiens): 105

CCOc1ccc(S(=O)(=O)c2ccc([C@H](C)NS(=O)(=O)C(F)(F)F)cc2)c(S(=O)(=O)c2ccccc2F)c1
Ki [1]: 0.0009 µM
Ratio Ki (Homo sapiens): 1960

C[C@H](NS(C)(=O)=O)c1ccc(S(=O)(=O)c2ccc(Cl)cc2S(=O)(=O)c2cccc3cccnc23)cc1
Ratio Ki (Homo sapiens): 31

C[C@H](N)c1ccc(S(=O)(=O)c2ccc(Cl)cc2S(=O)(=O)c2ccccc2F)cc1
Ratio Ki (Homo sapiens): 14

CNS(=O)(=O)c1cc(Cl)ccc1S(=O)(=O)c1ccc([C@H](C)NS(C)(=O)=O)cc1
Ratio Ki (Homo sapiens): 64

C[C@H](NS(=O)(=O)C(F)(F)F)c1ccc(S(=O)(=O)c2ccc(Cl)cc2S(=O)(=O)N2CCOCC2)cc1
Ki [1]: 0.192 µM
Ratio Ki (Homo sapiens): 99

C[C@H](NS(=O)(=O)C(F)(F)F)c1ccc(S(=O)(=O)c2ccc(NC3CC3)cc2S(=O)(=O)c2ccccc2F)cc1
Ki [1]: 0.0049 µM
Ratio Ki (Homo sapiens): 66

C[C@H](NS(C)(=O)=O)c1ccc(S(=O)(=O)c2ccc(Cl)cc2S(=O)(=O)N(C)C)cc1
Ratio Ki (Homo sapiens): 58

COCCOc1ccc(S(=O)(=O)c2ccc([C@H](C)NS(=O)(=O)C(F)(F)F)cc2)c(S(=O)(=O)c2ccccc2F)c1
Ki [1]: 0.0025 µM
Ratio Ki (Homo sapiens): 1600

C[C@H](NS(=O)(=O)C(F)(F)F)c1ccc(S(=O)(=O)c2ccc(Cl)cc2S(=O)(=O)c2c(F)cccc2N2CCOCC2)cc1
Ratio Ki (Homo sapiens): 18

C[C@H](NS(=O)(=O)C(F)(F)F)c1ccc(S(=O)(=O)c2ccc(C(F)(F)F)cc2S(=O)(=O)c2ccccc2F)cc1
Ratio Ki (Homo sapiens): 2080

CC(=O)N[C@@H](C)c1ccc(S(=O)(=O)c2ccc(Cl)cc2S(=O)(=O)c2ccccc2F)cc1
Ki [1]: 0.0607 µM
Ratio Ki (Homo sapiens): 250

C[C@H](NS(=O)(=O)C(F)(F)F)c1ccc(S(=O)(=O)c2ccc(Cl)cc2S(=O)(=O)c2c(F)cccc2NC2CC2)cc1
Ki [1]: 0.0144 µM
Ratio Ki (Homo sapiens): 688

C[C@H](NS(=O)(=O)C(F)(F)F)c1ccc(S(=O)(=O)c2ccc(C3CC3)cc2S(=O)(=O)c2ccccc2F)cc1
Ki [1]: 0.0014 µM
Ratio Ki (Homo sapiens): 2240

C[C@H](NS(=O)(=O)C(F)(F)F)c1ccc(S(=O)(=O)c2ccc(N)cc2S(=O)(=O)c2ccccc2F)cc1
Ratio Ki (Homo sapiens): 170

Cc1occc1S(=O)(=O)c1cc(Cl)ccc1S(=O)(=O)c1ccc([C@H](C)NS(C)(=O)=O)cc1
Ki [1]: 0.129 µM
Ratio Ki (Homo sapiens): 538

C[C@H](NCC(F)(F)F)c1ccc(S(=O)(=O)c2ccc(Cl)cc2S(=O)(=O)c2ccccc2F)cc1
Ratio Ki (Homo sapiens): 325

C[C@H](NS(C)(=O)=O)c1ccc(S(=O)(=O)c2ccc(Cl)cc2S(=O)(=O)NS(C)(=O)=O)cc1
Ki [1]: 2.75 µM
Ratio Ki (Homo sapiens): 36

C[C@H](NS(=O)(=O)C(F)(F)F)c1ccc(S(=O)(=O)c2ccc(O)cc2S(=O)(=O)c2ccccc2F)cc1
Ratio Ki (Homo sapiens): 1570

C[C@H](NS(=O)(=O)C(F)(F)F)c1ccc(S(=O)(=O)c2ccc(Cl)cc2S(=O)(=O)c2ccccn2)cc1
Ki [1]: 0.0036 µM
Ratio Ki (Homo sapiens): 1150

C[C@H](NS(=O)(=O)C(F)(F)F)c1ccc(S(=O)(=O)c2ccc(Cl)cc2S(=O)(=O)c2c(N)cccc2F)cc1
Ratio Ki (Homo sapiens): 1190

Cc1ccc(S(=O)(=O)c2ccc([C@H](C)NS(=O)(=O)C(F)(F)F)cc2)c(S(=O)(=O)c2ccccc2F)c1
Ki [1]: 0.0011 µM
Ratio Ki (Homo sapiens): 2290

C[C@H](NS(C)(=O)=O)c1ccc(S(=O)(=O)c2ccc(Cl)cc2S(=O)(=O)C2CCCCC2)cc1
Ki [1]: 0.0089 µM
Ratio Ki (Homo sapiens): 345

C[C@H](NS(=O)(=O)C(F)(F)F)c1ccc(S(=O)(=O)c2ccc(Cl)cc2S(=O)(=O)c2c(F)cccc2N(C)C)cc1
Ki [1]: 0.115 µM
Ratio Ki (Homo sapiens): 60

C[C@H](NC(=O)C(F)(F)F)c1ccc(S(=O)(=O)c2ccc(Cl)cc2S(=O)(=O)c2ccccc2F)cc1
Ratio Ki (Homo sapiens): 784

C[C@H](NS(=O)(=O)C(F)(F)F)c1ccc(S(=O)(=O)c2ccc(Cl)cc2S(=O)(=O)N2CCCCC2)cc1
Ki [1]: 0.058 µM
Ratio Ki (Homo sapiens): 231

C[C@H](NS(=O)(=O)C(F)(F)F)c1ccc(S(=O)(=O)c2ccc(Cl)cc2S(=O)(=O)NC(C)(C)C)cc1
Ki [1]: 0.136 µM
Ratio Ki (Homo sapiens): 123

C[C@H](NS(=O)(=O)C(F)(F)F)c1ccc(S(=O)(=O)c2ccc(N3CCNCC3)cc2S(=O)(=O)c2ccccc2F)cc1
Ratio Ki (Homo sapiens): 31

CCCS(=O)(=O)c1cc(Cl)ccc1S(=O)(=O)c1ccc([C@H](C)NS(C)(=O)=O)cc1
Ratio Ki (Homo sapiens): 57

CNc1cccc(F)c1S(=O)(=O)c1cc(Cl)ccc1S(=O)(=O)c1ccc([C@H](C)NS(=O)(=O)C(F)(F)F)cc1
Ratio Ki (Homo sapiens): 212

C[C@H](NS(=O)(=O)C(F)(F)F)c1ccc(S(=O)(=O)c2ccc(Cl)cc2S(=O)(=O)c2ncccn2)cc1
Ki [1]: 0.021 µM
Ratio Ki (Homo sapiens): 859

C[C@H](NS(C)(=O)=O)c1ccc(S(=O)(=O)c2ccc(Cl)cc2S(=O)(=O)c2ccccn2)cc1
Ratio Ki (Homo sapiens): 4400

C[C@H](NS(C)(=O)=O)c1ccc(S(=O)(=O)c2ccc(Cl)cc2S(=O)(=O)c2ccccc2F)cc1
Ratio Ki (Homo sapiens): 4390
AUC at 6 h (in vivo): 6.33 µM·h

C[C@H](NS(C)(=O)=O)c1ccc(S(=O)(=O)c2ccc(Cl)cc2S(=O)(=O)c2cccc[n+]2[O-])cc1
Ratio Ki (Homo sapiens): 840

CCNC(=O)N[C@@H](C)c1ccc(S(=O)(=O)c2ccc(Cl)cc2S(=O)(=O)c2ccccc2F)cc1
Ki [1]: > 10 µM

C[C@H](NS(=O)(=O)C(F)(F)F)c1ccc(S(=O)(=O)c2ccccc2S(=O)(=O)c2ccccc2F)cc1
Ratio Ki (Homo sapiens): 426

C[C@H](NS(=O)(=O)C(F)(F)F)c1ccc(S(=O)(=O)c2ccc(OC(F)(F)F)cc2S(=O)(=O)c2ccccc2F)cc1
Ratio Ki (Homo sapiens): 525
